Where “and” joins values, the source holds several entries; their conditions need not be identical. Equal entries are not always repeated. Where two headings read alike, the source gives them in different places.
Legend:
EV-D68 = experiment: microbe, parasite or virus in culture; format: cell-based, enterovirus D68
HRV-A2 = experiment: microbe, parasite or virus in culture; format: cell-based, human rhinovirus
HRV-B14 = experiment: microbe, parasite or virus in culture; format: cell-based, human rhinovirus
[1] = tested on: representative EVs and RVs; format: cell-based
human SERT = target: T1, human SERT (Homo sapiens, UniProt P31645); format: cell-based; conditions: for SERT, Mean (Figure 8B): Control = 100.00; for SERT, Mean as % (Figure 8B): Control = 100%
T1 construct: expressed in transfected cells; host or cells: HEK293 (gift of Dr. Hoener, F. Hoffmann-La Roche)

human DAT = target: T2, human DAT (Homo sapiens, UniProt Q01959); format: cell-based; conditions: for DAT, Mean (Figure 8B): Control = 100
T2 construct: expressed in transfected cells; host or cells: HEK293 (gift of Dr. Hoener, F. Hoffmann-La Roche)

human NET = target: T3, human NET (Homo sapiens, UniProt P23975); format: cell-based; conditions: for NET, Mean (Figure 8B): Control = 100; for NET, Mean as % (Figure 8B): Control = 100%
T3 construct: expressed in transfected cells; host or cells: HEK293 (gift of Dr. Hoener, F. Hoffmann-La Roche)
T3 sequence (P23975 whole entry): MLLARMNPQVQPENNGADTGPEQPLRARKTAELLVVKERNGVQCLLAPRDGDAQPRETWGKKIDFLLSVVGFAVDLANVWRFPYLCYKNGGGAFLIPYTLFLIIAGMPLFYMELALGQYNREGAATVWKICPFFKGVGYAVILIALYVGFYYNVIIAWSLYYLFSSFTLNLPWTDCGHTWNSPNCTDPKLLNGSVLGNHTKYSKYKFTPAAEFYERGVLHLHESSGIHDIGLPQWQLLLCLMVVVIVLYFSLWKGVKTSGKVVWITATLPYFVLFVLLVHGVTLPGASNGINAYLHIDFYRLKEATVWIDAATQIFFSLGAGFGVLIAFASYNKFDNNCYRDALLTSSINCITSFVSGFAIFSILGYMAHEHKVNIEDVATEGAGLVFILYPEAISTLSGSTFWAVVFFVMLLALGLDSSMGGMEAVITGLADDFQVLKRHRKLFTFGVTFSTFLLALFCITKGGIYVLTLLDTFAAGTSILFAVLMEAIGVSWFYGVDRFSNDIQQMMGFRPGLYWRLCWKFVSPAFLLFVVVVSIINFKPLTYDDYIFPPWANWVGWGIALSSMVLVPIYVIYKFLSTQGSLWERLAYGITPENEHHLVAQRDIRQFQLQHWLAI

T1 sequence (P31645 whole entry): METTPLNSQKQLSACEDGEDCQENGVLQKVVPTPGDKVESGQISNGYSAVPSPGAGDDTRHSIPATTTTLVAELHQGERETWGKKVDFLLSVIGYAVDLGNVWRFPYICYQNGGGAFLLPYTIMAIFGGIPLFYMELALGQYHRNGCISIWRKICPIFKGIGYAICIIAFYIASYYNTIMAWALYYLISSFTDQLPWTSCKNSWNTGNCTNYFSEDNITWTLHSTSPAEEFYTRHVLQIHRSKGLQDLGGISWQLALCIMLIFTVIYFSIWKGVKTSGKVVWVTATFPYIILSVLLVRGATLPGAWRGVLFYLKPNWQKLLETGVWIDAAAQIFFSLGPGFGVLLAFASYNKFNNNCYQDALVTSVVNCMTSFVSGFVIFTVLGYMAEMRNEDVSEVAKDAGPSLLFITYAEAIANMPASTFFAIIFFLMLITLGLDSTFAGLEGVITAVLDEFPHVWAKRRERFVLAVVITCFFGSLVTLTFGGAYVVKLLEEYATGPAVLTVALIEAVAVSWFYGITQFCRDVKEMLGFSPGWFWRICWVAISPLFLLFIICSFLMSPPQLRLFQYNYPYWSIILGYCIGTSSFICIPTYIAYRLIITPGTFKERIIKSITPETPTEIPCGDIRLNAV
T2 sequence (Q01959 whole entry): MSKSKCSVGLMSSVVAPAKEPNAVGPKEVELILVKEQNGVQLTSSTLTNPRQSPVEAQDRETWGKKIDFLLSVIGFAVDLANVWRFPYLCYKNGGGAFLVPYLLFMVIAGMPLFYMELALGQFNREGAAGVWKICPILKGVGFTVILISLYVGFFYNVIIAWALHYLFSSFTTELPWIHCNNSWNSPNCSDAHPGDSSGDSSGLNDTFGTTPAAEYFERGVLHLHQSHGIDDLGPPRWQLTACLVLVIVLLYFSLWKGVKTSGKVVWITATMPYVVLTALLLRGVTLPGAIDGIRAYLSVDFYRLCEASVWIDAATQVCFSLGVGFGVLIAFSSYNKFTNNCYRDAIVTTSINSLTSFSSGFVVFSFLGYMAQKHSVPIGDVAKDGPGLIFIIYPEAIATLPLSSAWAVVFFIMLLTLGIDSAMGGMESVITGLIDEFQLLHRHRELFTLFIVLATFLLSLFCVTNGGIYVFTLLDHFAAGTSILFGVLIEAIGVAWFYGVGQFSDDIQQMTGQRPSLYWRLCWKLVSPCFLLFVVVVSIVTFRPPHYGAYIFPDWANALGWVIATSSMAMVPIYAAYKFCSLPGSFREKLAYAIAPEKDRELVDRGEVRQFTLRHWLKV

## O=C(c1cc[nH]c1)N(Cc1ccc(F)cc1)c1ccccc1 [Compound 12b, N-(4-Fluorobenzyl)-N-phenyl-1H-pyrrole-3-carboxamide]
EV-D68; Concentration 0.0137 µM
  Figure 7 dose-response raw data, EV-D68 (triplicate values): 11.1333 and 12.4782 and 12.9265
EV-D68; Concentration 0.0412 µM
  Figure 7 dose-response raw data, EV-D68 (triplicate values): 10.386 and 11.4321 and 12.9265
EV-D68; Concentration 0.1235 µM
  Figure 7 dose-response raw data, EV-D68 (triplicate values): 107.007 and 105.506 and 109.76
EV-D68; Concentration 0.3704 µM
  Figure 7 dose-response raw data, EV-D68 (triplicate values): 98.999 and 100.501 and 112.888
EV-D68; Concentration 1.1111 µM
  Figure 7 dose-response raw data, EV-D68 (triplicate values): 104.38 and 102.252 and 111.637
EV-D68; Concentration 3.3333 µM
  Figure 7 dose-response raw data, EV-D68 (triplicate values): 103.504 and 113.389
EV-D68; Concentration 10 µM
  Figure 7 dose-response raw data, EV-D68 (triplicate values): 95.6204 and 100.626 and 112.763
EV-D68; Enterovirus D, EVD68, HeLa R19, read-out: EC50 EV-D68
  EC50: 86 ± 7.1 nM
EV-D68; Enterovirus D, EVD68, HeLa R19, read-out: Table in Figure 7A, EVD68, AVERAGE
  EC50: 85.7 nM
EV-D68; Enterovirus D, EVD68, HeLa R19, read-out: Table in Figure 7A, EVD68, exp1-exp3
  EC50: 88 nM
EV-D68; read-out: Table in Figure 7A, EVD68, exp1-exp3
  EC50: 93 nM and 76 nM
HRV-A2; Concentration 0.0046 µM
  Figure 7 dose-response raw data, HRV-A2 (triplicate values): 14.2402 and 14.6225 and 13.0933
HRV-A2; Concentration 0.0137 µM
  Figure 7 dose-response raw data, HRV-A2 (triplicate values): 14.2402 and 14.6225 and 13.0933
HRV-A2; Concentration 0.0412 µM
  Figure 7 dose-response raw data, HRV-A2 (triplicate values): 15.1004 and 21.3125 and 13.3801
HRV-A2; Concentration 0.1235 µM
  Figure 7 dose-response raw data, HRV-A2 (triplicate values): 12.6155 and 13.1889 and 12.7111
HRV-A2; Concentration 0.3704 µM
  Figure 7 dose-response raw data, HRV-A2 (triplicate values): 13.0933 and 13.1889 and 13.7623
HRV-A2; Concentration 1.1111 µM
  Figure 7 dose-response raw data, HRV-A2 (triplicate values): 12.6155 and 14.1446 and 14.4314
HRV-A2; Concentration 3.3333 µM
  Figure 7 dose-response raw data, HRV-A2 (triplicate values): 83.2845 and 84.4313 and 84.7181
HRV-A2; Concentration 11.1111 µM
  Figure 7 dose-response raw data, HRV-A2 (triplicate values): 99.5652 and 104.147 and 110.034
HRV-A2; Concentration 33.3333 µM
  Figure 7 dose-response raw data, HRV-A2 (triplicate values): 100.093 and 102.52 and 105.578
HRV-A2; Concentration 100 µM
  Figure 7 dose-response raw data, HRV-A2 (triplicate values): 100.093 and 102.52 and 105.578
HRV-A2; Human rhinovirus sp., HRV2 / HRVA2, HeLa R19, read-out: Table in Figure 7A, HRV2, AVERAGE
  EC50: 2750 nM
HRV-A2; Human rhinovirus sp., HRV2 / HRVA2, HeLa R19, read-out: Table in Figure 7A, HRV2, exp1-exp3
  EC50: 2760 nM
HRV-A2; read-out: Table in Figure 7A, HRV2, exp1-exp3
  EC50: 3210 nM and 2280 nM
HRV-B14; Concentration 0.0046 µM
  Figure 7 dose-response raw data, HRV_B14 (triplicate values): 15.2266 and 14.5606
HRV-B14; Concentration 0.0137 µM
  Figure 7 dose-response raw data, HRV_B14 (triplicate values): 10.2522 and 17.3246 and 10.943
HRV-B14; Concentration 0.0412 µM
  Figure 7 dose-response raw data, HRV_B14 (triplicate values): 15.2266 and 14.5606 and 17.3246
HRV-B14; Concentration 0.1235 µM
  Figure 7 dose-response raw data, HRV_B14 (triplicate values): 106.02 and 106.455 and 105.786
HRV-B14; Concentration 0.3704 µM
  Figure 7 dose-response raw data, HRV_B14 (triplicate values): 105.351 and 107.391 and 106.589
HRV-B14; Concentration 1.1111 µM
  Figure 7 dose-response raw data, HRV_B14 (triplicate values): 98.3946 and 107.926 and 101.94
HRV-B14; Concentration 3.3333 µM
  Figure 7 dose-response raw data, HRV_B14 (triplicate values): 99.5652 and 104.147 and 110.034
HRV-B14; Concentration 11.1111 µM
  Figure 7 dose-response raw data, HRV_B14 (triplicate values): 98.3946 and 107.926 and 101.94
HRV-B14; Concentration 33.3333 µM
  Figure 7 dose-response raw data, HRV_B14 (triplicate values): 99.2522 and 114.147 and 100.034
HRV-B14; Concentration 100 µM
  Figure 7 dose-response raw data, HRV_B14 (triplicate values): 99.5652 and 104.147 and 100.034
HRV-B14; Human rhinovirus sp., HRV14 / HRVB14, HeLa R19, read-out: Table in Figure 7A, HRV14, AVERAGE
  EC50: 95.3 nM
HRV-B14; Human rhinovirus sp., HRV14 / HRVB14, HeLa R19, read-out: Table in Figure 7A, HRV14, exp1-exp3
  EC50: 112 nM
HRV-B14; Human rhinovirus sp., HRVB14, HeLa R19, read-out: EC50 HRV-B14
  EC50: 95 ± 120 nM
HRV-B14; read-out: Table in Figure 7A, HRV14, exp1-exp3
  EC50: 90 nM and 84 nM
[1]
  spectrum of antiviral activity (in words): improved antiviral profile against all tested viruses
Human SERT; 1µM
  SERT, Mean (Figure 8B): 88.76
  SERT, Mean as % (Figure 8B): 89%
Human SERT; 100µM
  SERT, Mean (Figure 8B): 102.47
  SERT, Mean as % (Figure 8B): 102%
Human SERT; HEK293 cells expressing human SERT, 1 and 100 μM
  inhibition of SERT-mediated uptake (in words): neither 12a, 19b, 19d, nor the combined compound 12b inhibited
Human DAT; 1µM
  DAT, Mean (Figure 8B): 98.697
Human DAT; 1µM, Control = 100%
  DAT, Mean as % (Figure 8B): 103%
Human DAT; 100µM
  DAT, Mean (Figure 8B): 90.1253
Human DAT; HEK293 cells expressing human DAT, 1 μM or 100 μM
  inhibition of DAT function (in words): neither 12a, 19b, 19d, nor the combined compound 12b inhibited
Human NET; 1µM
  NET, Mean (Figure 8B): 100
  NET, Mean as % (Figure 8B): 100%
Human NET; 100µM
  NET, Mean (Figure 8B): 103.417
  NET, Mean as % (Figure 8B): 103%
Human NET; HEK293 cells expressing human NET, 1 μM or 100 μM
  inhibition of NET function (in words): neither 12a, 19b, 19d, nor the combined compound 12b inhibited
